Where “and” joins values, the source holds several entries; their conditions need not be identical. Equal values may be shown once.
Columns and labels:
[1] = tested on: human epidermoid carcinoma cells A431; experiment: Abrogating action for the cell cycle accumulation in G2 and S phases (flow cytometry DNA histogram); type: cell-based; details: cisplatin 20 μmol/L
Protocol: Each 5 mL of human epidermoid carcinoma cells A431 (hereinafter, referred to as A431 cells) prepared in 6×10^4 cells/mL in a DMEM medium (manufactured by Nissui; hereinafter, referred to as the medium A) containing 10% fetal bovine serum were disposed in a 10-cm laboratory dish (manufactured by Falcon; product no. 3303). The plate was incubated in a carbon dioxide gas incubator at 37° C. for 24 hours, then cisplatin (manufactured by Sigma) where its final concentration in the medium A was made 20 μmol/L was added and the mixture was incubated at 37° C. for 1 hour in a carbon dioxide gas incubator.
After removing the medium, the cell was washed with PBS(−) [phosphate-buffered physiological saline solution (containing no calcium ion); manufactured by Dainippon Pharmaceutical, then the medium A was added thereto, the mixture was incubated at 37° C. for 15 hours in a carbon dioxide gas incubator, a compound which was appropriately diluted with the medium A was added thereto and the mixture was incubated again in a carbon dioxide gas incubator at 37° C. for 8 hours. After removal of the supernatant from the culture, the cell was washed with PBS(−), exfoliated with a 0.25% aqueous solution of trypsin (0.25% Trypsin manufactured by Gibco BRL) and a 0.02% aqueous solution of ethylenediaminetetraacetic acid (manufactured by Wako Pure Chemicals), fixed with a 70% aqueous solution of ethanol so as to make the cell concentration 10^6 cells/mL and preserved in a cool chamber of 4° C. The fixed cells were subjected to a centrifugal separation to remove ethanol, washed with PBS(−) and treated with a 0.25 mg/mL ribonuclease A type 1-A (manufactured by Sigma) PBS(−) solution containing 0.1% Nonidet P-40 (manufactured by Nakarai Kagaku Yakuhin) at 37° C. for 30 minutes and a 0.1% solution of propidium iodide (manufactured by Sigma) in NP-40/PBS(−) so as to make the final concentration 50 μg/mL followed by staining in ice for not shorter than 20 minutes.
A DNA histogram was measured using an EPICS ELITE Flow Cytometer (manufactured by Coulter) and distribution of cell cycle was analyzed using a MultiCycle Program (manufactured by Phonenix Flow Systems).

[2] = target: T1, human CDK2-cyclin E (Homo sapiens, UniProt P24941); experiment: CDK2 inhibitory activity (incorporation of 32P from [γ-32P]-ATP into GST-RB); type: biochemical; details: 50 μmol/L ATP, 30° C., 5 minutes; read-out: Enzyme Inhibitory Activity, IC50
T1 construct: made in house; host or cells: Spodoptera frugiperda (Sf-9) insect cells, baculovirus
Protocol: A crude extract of cells of an insect, Spodoptera frugiperda (Sf-9) infected with human CDK2-cyclin E-expressing baculovirus was subjected to an affinity purification to give an enzyme solution. The enzyme solution (4 μL), 20 μL of reaction solution containing a DMSO solution in which a test compound was dissolved (final concentration: 0.1%) and 5 μL of a substrate solution [50 μmol/L of ATP (final concentration), 2 μCi of [γ-^32P]-ATP and 500 ng of […] (GST-RB)] were incubated at 30° C. for 5 minutes. A sodium dodecylsulfate-polyacrylamide gel electrophoresis (SDS-PAGE) was carried out, then incorporation of radiation activity from [γ-^32P]-ATP into GST-RB was determined using an Image Analyzer BAS 200 (Fuji Photo-Film) and an enzyme inhibition was calculated. CDK2 inhibitory activity (I) at various concentrations of a test compound was calculated by the following formula using radiation activity (C) of the group to which no test compound was added, radiation activity (S) of the group to which a test compound was added and radiation activity (B) of a background (a sample where the reaction time was 0 hour) and a concentration by which CDK2 activity was inhibited to an extent of 50% by each test compound was defined as IC50. I(%)=[1−(S−B)/(C−B)]×100

[3] = tested on: Saos-2 cells; experiment: Cell growth inhibition against human osteosarcoma cells Saos-2; type: cell-based; details: Saos-2, 72 hours, read-out: Cell Growth Inhibitory Activity, IC50, Saos-2
Protocol: (§1) Each of Saos-2 and U2OS cells was made into 1.0×10^4 cells/mL using a Roswell Park Memorial Institute's medium (RPMI) 1640 (manufactured by Nissui) containing 10% of fetal bovine serum and penicillin/streptomycin and a Dulbecco's modified Eagle medium (DME) (manufactured by Nissui) containing 10% fetal bovine serum and penicillin/streptomycin each. Each of the prepared cells was dispensed in an amount of 0.1 mL per well to a 96-well microtiter plate (#167008 manufactured by Nunk). Each plate was incubated in a carbon dioxide gas incubator at 37° C. for 20 hours. A solution of a test compound in DMSO prepared into 10 mmol/L was diluted with each medium for incubation and each 0.05 mL thereof was added to each well, subjected to stepwise dilution by means of a pipetting operation in the plate and incubated at 37° C. for 72 hours in a carbon dioxide gas incubator.
(§2) A supernatant was removed from cell culture, each well was washed with 0.1 mL of a phosphate buffer (PBS buffer) twice and 0.1 mL of the above medium was added to each well. A cell proliferation kit II (manufactured by Boehringer Mannheim) was used for the measurement of cell numbers in each well. A reagent for color reaction was added, incubation was carried out in a carbon dioxide gas incubator at 37° C. for 3 hours and absorbance at 490 nm and 650 nm was measured in a microplate reader (M-SP max 250; manufactured by Wako Pure Chemicals). A value where absorbance at 650 nm was deducted from that at 490 nm (difference absorbance) was calculated for each well and the difference absorbance obtained from non-treated cells and cells which were treated with a test compound of a known concentration was compared whereupon a concentration of the test compound which inhibited the cell growth to an extent of 50% was calculated and expressed as IC50.

[4] = tested on: U2OS cells; experiment: Cell growth inhibition against human osteosarcoma cells U2OS; type: cell-based; details: 72 hours, read-out: Cell Growth Inhibitory Activity, IC50, U2OS
Protocol: as §1, §2

Compound | IC50 [2] | IC50 [3] | IC50 [4] | other results
N.N.[Cl][Pt][Cl] [Cisplatin, cisplatin] |  |  |  | Cell Cycle Distribution (%) G1 [1]: 2.2% and 10.4%; Cell Cycle Distribution (%) G2M [1]: 17.2% and 22.4%; Cell Cycle Distribution (%) S [1]: 80.6% and 67.2%; Change of cell cycle distribution as compared with untreated groups (induction of the accumulation in G2 or S phase) [1]: increase in S phase, increase in G2 and M phase and decrease in G1 phase
CCCCC(=O)Oc1cccc(-c2cc3c(cc(C=O)n3C)c3c2C(=O)NC3=O)c1 [Compound 12] | 5000 nM |  |  | 
Cn1c2ccccc2c2c3c(c(CBr)cc21)C(=O)NC3=O [Compound 36] | 2300 nM |  |  | 
C=CCn1c2ccccc2c2c3c(c(N)cc21)C(=O)NC3=O [Compound 45] | 4900 nM |  |  | 
C=CCn1c2ccccc2c2c3c(c(CO)cc21)C(=O)NC3=O [Compound 46] | 3300 nM |  |  | 
C=CCn1c2ccccc2c2c3c(c(COC4CCCCO4)cc21)C(=O)NC3=O (centres unmarked) [Compound 47] | 4000 nM |  |  | 
C=CCn1c2ccccc2c2c3c(c(CN=[N+]=[N-])cc21)C(=O)NC3=O [Compound 48] | 430 nM |  |  | 

Now from value to compound, other results behind:

IC50 [2] | IC50 [3] | IC50 [4] | Compound | other results
660 nM |  |  | C=CCn1c2ccccc2c2c3c(c(C=O)cc21)C(=O)NC3=O [Compound 50] | 
2000 nM |  |  | C=CCn1c2ccccc2c2c3c(c(C=NNCCO)cc21)C(=O)NC3=O [Compound 54] | 
7000 nM | 1300 nM | 1600 nM | CN(C)CCCn1c2ccccc2c2c3c(c(C=O)cc21)C(=O)NC3=O [Compound 64] | 
2800 nM | 680 nM | 500 nM | CN(C)CCCn1c2ccccc2c2c3c(c(C=NO)cc21)C(=O)NC3=O [Compound 65] | 
250 nM | 1200 nM | 2100 nM | CC(Cn1c2ccccc2c2c3c(c(C=O)cc21)C(=O)NC3=O)N(C)C (centres unmarked) [Compound 66] | 
200 nM | 930 nM | 1200 nM | CC(Cn1c2ccccc2c2c3c(c(C=NO)cc21)C(=O)NC3=O)N(C)C (centres unmarked) [Compound 68] | 
960 nM | 300 nM | 680 nM | CC(Cn1c2ccccc2c2c3c(c(C=NN)cc21)C(=O)NC3=O)N(C)C (centres unmarked) [Compound 69] | 
2000 nM |  |  | COC(=O)c1ccc(Cn2c3ccccc3c3c4c(c(COC5CCCCO5)cc32)C(=O)NC4=O)cc1 (centres unmarked) [Compound 79] | 
2400 nM |  |  | O=C1NC(=O)c2c1c(COC1CCCCO1)cc1c2c2ccccc2n1Cc1ccc2ccccc2c1 (centres unmarked) [Compound 80] | 
